One assay relates to neutrophils. In words: Neutrophil infiltration in suture-induced inflamed corneas (NIMP-R14 staining of cross-sections). It counts as in vivo, mice. As to conditions: for neutrophils per section: n=3, mean±SEM. As to the method:
ATLa or vehicle was subconjunctivally injected at 0 h and 48 h after suture placement. For each compound treatment, eyes were enucleated from a group of mice at 24 h, and another group at 72 h after suture placement (3 eyes per group). Cross-sections were stained with anti-neutrophil (NIMP-R14) or anti-macrophage (F4/80) Ab, and 12 sections were used to enumerate the respective leukocyte populations. Results represent the mean (±SEM) of 3 eyes per group (*P<0.05, **P<0.001 vs vehicle-treated group, t-test), and data are representative of two independent experiments.
The standard model for induction of inflammatory corneal NV is associated with development of intrastromal vessels in close association with a mixed-cell (primarily neutrophilic) infiltrate.^14,15 Three interrupted sutures (11-0 nylon, Sharpoint; Vanguard, Houston, Tex.) were placed intrastromally with two stromal incursions extending over 120° of the corneal circumference each to induce inflammatory corneal NV, which is also associated with significant LA, as described previously.^14 The corneas were followed by slit-lamp biomicroscopy for corneal NV development. NV was graded between 0 and 3, with increments of 0.5, using a grid system per each corneal quadrant based on the centripetal extent of the neovascular branches from the limbus. Scores for each quadrant then summed to derive the NV index (range 0 to 12) for each eye, as previously described.^14
BALB/c mice were randomized to receive ATLa, or vehicle (normal saline) by subconjunctival injection in a masked fashion after suture or hydron pellet placement. […] ATLa was synthesized as described previously.^20 The physical properties were monitored routinely via LC/MS/MS matching the reported biological and physical properties prior to analysis in present experiments.
Full thickness corneal tissue or 8 μm-frozen sections were fixed in acetone for 15 minutes at room temperature. […] Finally, the samples were covered with mounting medium (Vector Laboratories, Burlingame, Calif.) and analyzed by epifluorescence microscopy (Eclipse E800; Nikon, Tokyo, Japan). […]

In another assay the test system is TNF-α mRNA. In words: Real-time PCR of TNF-α mRNA in suture-induced inflamed corneas. It counts as in vivo, mice. As to conditions: vs vehicle. How it is done:
FIG. 3. Lipoxin Reduces Cytokine mRNA Expressions in Inflamed Corneas. ATLa or vehicle was subconjunctivally injected at 0 h and 48 h after suture placement. For each compound treatment, corneas were harvested from a group of mice at 24 h, and another group at 72 h after suture placement, as well as from normal untreated control corneas (6 corneas per group). mRNA levels of inflammatory cytokines (including IL-1α, IL-1β, and TNF-α) were determined by real-time PCR. Data were normalized to GAPDH mRNA and values were expressed as the fold change over normal control corneas. Results represent the mean (±SEM) of three samples per group (each sample consisted of 2 pooled corneas), and data are representative of two independent experiments (*P<0.05, **P<0.001 vs vehicle-treated group, t-test). […]
BALB/c mice were randomized to receive ATLa, or vehicle (normal saline) by subconjunctival injection in a masked fashion after suture or hydron pellet placement. […] ATLa was synthesized as described previously.^20 The physical properties were monitored routinely via LC/MS/MS matching the reported biological and physical properties prior to analysis in present experiments. […]
In general terms: Real-time PCR tracks product formation cycle by cycle.

Consider `COC(=O)CCC[C@H](O)[C@H](O)/C=C/C=C/C=C\C=C\[C@H](O)COc1ccc(F)cc1` [ATLa, 15-epi-16-(para-fluoro)-phenoxy-lipoxin A4 methyl ester], for which the “inhibition of neutrophils recruitment into the inflamed corneas” value with neutrophils (24 and 72 h after suture placement, 100 ng/10 μl subconjunctival at 0 h and 48 h, vs vehicle) is listed as roughly 30%. Moreover, the figures for the neutrophils per section with neutrophils (24 h after suture placement) and in the assay on neutrophils (72 h after suture placement) were 53±1 cells/section and 34±5 cells/section, respectively. The “increase in TNF-α expression (mRNA)” value is given as “significantly suppressed” in the assay on TNF-α mRNA (24 h after suture placement) and “not at 72 h” in the assay on TNF-α mRNA (72 h after suture placement).

Values taken from patent US20100105772A1, “USE OF NOVEL LIPID MEDIATORS TO INHIBIT ANGIOGENESIS” (priority 2008, published 2010).
